Target: T1, PPM1D (Mus musculus, UniProt Q9QZ67)
T1 construct: His-mousePPM1D (1–413)
T1 sequence (Q9QZ67 1-413): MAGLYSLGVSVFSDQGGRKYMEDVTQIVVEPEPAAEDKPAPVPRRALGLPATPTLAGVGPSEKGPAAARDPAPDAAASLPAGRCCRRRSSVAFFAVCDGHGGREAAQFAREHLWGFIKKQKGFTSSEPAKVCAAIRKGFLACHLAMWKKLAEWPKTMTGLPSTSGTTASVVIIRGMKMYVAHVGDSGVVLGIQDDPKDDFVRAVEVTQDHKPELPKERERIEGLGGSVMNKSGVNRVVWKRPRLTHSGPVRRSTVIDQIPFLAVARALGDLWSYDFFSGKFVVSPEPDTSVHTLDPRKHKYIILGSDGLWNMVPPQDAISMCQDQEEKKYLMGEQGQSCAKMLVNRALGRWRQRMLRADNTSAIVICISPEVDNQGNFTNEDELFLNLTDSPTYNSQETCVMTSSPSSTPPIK
Experiment: in vitro phosphatase assay, released free phosphate by BIOMOL GREEN, p53-derived peptide substrate
Assay type: biochemical

How did the IC50 turn out when CC[Si](CC)(CC)O[C@@H]1CCC[C@@H]2[C@@H]1C[C@H](O[Si](C)(C)C(C)(C)C)C[C@@]2(C)C(=O)O [SL-176] was run?
Its IC50 is 112 ± 12 nM.
